Assay results as given in patent US8759519B2, “Mono-hydrochloric salts of an inhibitor of histone deacetylase” (Janssen Pharmaceutica NV, priority 2007, dated 2014).
Counter-ions that a name gives are not always drawn. Like-named read-outs stand apart in the source and are kept apart here.

Columns and labels:
Format in all cases: physicochemical
[1] = Crystallographic stability after storage in open conditions (TGA, DSC, XRPD, IR); design: key to XRD / IR: ~Ref: identical with reference; Cryst.: crystalline; settings: for IR / XRD: Table E
Protocol: The stability of the crystal structure of Form I was studied after storage of the compound in open conditions for a period of six weeks at room temperature (RT) under <5%, 56% and 75% relative humidity (RH), 50° C. and 40° C./75% RH.
The samples are analyzed with thermogravimetry (TGA), differential scanning calorimetry (DSC), X-ray powder diffraction (XRPD) and infrared spectroscopy (IR).
The stability of the crystal structure of Form II was studied after storage of the compound in open conditions for a period of six weeks at room temperature (RT) under <5%, 56% and 75% relative humidity (RH), 50° C. and 40° C./75% RH.
The samples were analyzed with thermogravimetry (TGA), differential scanning calorimetry (DSC), X-ray powder diffraction (XRPD) and infrared spectroscopy (IR).

[2] = Aqueous solubility in solvents with different pH; settings: 20° C., read-out: Solubility (mg/ml solution)
Protocol: Aqueous solubilities of Form I were measured in solvents with different pH. An excess of the solute was equilibrated with the solvent at 20° C. for 24 hours. After removing the undissolved compound, the concentration in solution was determined using UV spectrometry.

[3] = Chemical stability after storage in open conditions (HPLC, visual inspection); settings: for Appearance / HPLC Sum of impurities: hydrochloride
Protocol: Form I was stored in different open conditions for periods of 1, 4 and 8 weeks.
These conditions are 40° C./75% RH, 50° C., RT/<5% RH, RT/56% RH, RT/75% RH and 0.3 da ICH light.
The compounds were analyzed after storage by HPLC and by visual inspection.
Form II was stored in different open conditions for periods of 1, 4 and 8 weeks. These conditions were 40° C./75% RH, 50° C., RT/<5% RH, RT/56% RH, RT/75% RH and 0.3 da ICH light.

[4] = Adsorption/desorption of water (dynamic vapor sorption); settings: 25° C., hydrochloride
Protocol: The ADS/DES data were obtained using a SMS dynamic vapor sorption model DVS-1 and the weight change was recorded with tespect to the atmospheric humidity at 25° C. The weight of the samples was about 17 mg of Form I and 24 mg of Form II. The samples were dried for 60 min under dry nitrogen. The equilibrium was lower or equal to 0.01%/min. for minimal 15 min and maximal 60 min. The data interval was 0.05% or 2.0 min.
Relative Humidity (%) measurement points were:
The adsorption and desorption of water at 25° C. at different conditions of relative humidity was investigated on 17 mg Form I.
The weight change as a function of relative humidity was registered.
The adsorption and desorption of water at 25° C. at different conditions of relative humidity was investigated on about 24 mg Form II

[5] = 0 days (reference), hydrochloride
[6] = six weeks open, 40° C./75% RH, hydrochloride
[7] = six weeks open, 50° C., hydrochloride
[8] = six weeks open, RT/56% RH, hydrochloride
[9] = six weeks open, RT/75% RH, hydrochloride
[10] = six weeks open, RT/<5% RH, hydrochloride

Cn1cc(CNCC2CCN(c3ncc(C(=O)NO)cn3)CC2)c2ccccc21 [Form I, N-hydroxy-2-[4-[[[(1-methyl-1H-indol-3-yl)methyl]amino]methyl]-1-piperidinyl]-5-pyrimidinecarboxamide hydrochloride]
DSC Exotherm Max (° C.) ([1]; 0 days (reference)): 216.8 °C | TGA <200° C. ([1]; 0 days (reference)): 0.9% | App (appearance) [1, 5]: Beige-gray | TGA <100° C. [1, 5]: 0.4% | IR ([1]; six weeks open, 40° C./75% RH): ~Ref | XRD ([1]; six weeks open, 40° C./75% RH): ~Ref | IR ([1]; six weeks open, 50° C.): ~Ref | XRD ([1]; six weeks open, 50° C.): ~Ref | IR ([1]; six weeks open, RT/56% RH): ~Ref | XRD ([1]; six weeks open, RT/56% RH): ~Ref | IR ([1]; six weeks open, RT/75% RH): ~Ref | XRD ([1]; six weeks open, RT/75% RH): ~Ref | IR ([1]; six weeks open, RT/<5% RH): ~Ref | XRD ([1]; six weeks open, RT/<5% RH): ~Ref | crystallographic stability (conclusion) ([1]; six weeks open storage under the different conditions, hydrochloride): crystallographically stable | DSC Exotherm Max (° C.) ([1]; six weeks open, 40° C./75% RH): 216.9 °C | TGA <200° C. ([1]; six weeks open, 40° C./75% RH): 0.3% | App (appearance) [1, 6]: Beige-gray | TGA <100° C. [1, 6]: 1% | DSC Exotherm Max (° C.) ([1]; six weeks open, 50° C.): 216.9 °C | TGA <200° C. ([1]; six weeks open, 50° C.): 0.3% | App (appearance) [1, 7]: Beige-gray | TGA <100° C. [1, 7]: 0.5% | DSC Exotherm Max (° C.) ([1]; six weeks open, RT/56% RH): 216.9 °C | TGA <200° C. ([1]; six weeks open, RT/56% RH): 0.4% | App (appearance) [1, 8]: Beige-gray | TGA <100° C. [1, 8]: 0.5% | DSC Exotherm Max (° C.) ([1]; six weeks open, RT/75% RH): 217.0 °C | TGA <200° C. ([1]; six weeks open, RT/75% RH): 0.4% | App (appearance) [1, 9]: Beige-gray | TGA <100° C. [1, 9]: 0.9% | DSC Exotherm Max (° C.) ([1]; six weeks open, RT/<5% RH): 216.7 °C | TGA <200° C. ([1]; six weeks open, RT/<5% RH): 0.5% | App (appearance) [1, 10]: Beige-gray | TGA <100° C. [1, 10]: 0.8% | solubility thermodynamic at 24 h ([2]; aqueous buffer, 0.001N HCl (pH 2.9)): 1.5 mg/mL | solubility thermodynamic at 24 h ([2]; aqueous buffer, 0.01N HCl (pH 2.0)): 1.4 mg/mL | solubility thermodynamic at 24 h ([2]; aqueous buffer, Buffer pH 2 (citric acid/NaOH/HCl) (pH 2.0)): 0.95 mg/mL | solubility thermodynamic at 24 h ([2]; aqueous buffer, Buffer pH 4 (citric acid/HCl/NaOH) (pH 3.9)): 1.2 mg/mL | solubility thermodynamic at 24 h ([2]; aqueous buffer, Buffer pH 6 (citric acid/NaOH) (pH 6.0)): 1.5 mg/mL | solubility thermodynamic at 24 h ([2]; aqueous buffer, Buffer pH 8 (boric acid/HCl/NaOH) (pH 7.8)): 1.3 mg/mL | solubility thermodynamic at 24 h ([2]; aqueous buffer, Buffer pH 10 (boric acid/KCl/NaOH) (pH 9.8)): 1.3 mg/mL | solubility thermodynamic at 24 h ([2]; water (pH 4.5)): 1.4 mg/mL | Appearance ([3]; 0.3 da ICH light (1 week)): beige-gray | HPLC Sum of impurities ([3]; 0.3 da ICH light (1 week)): 4.58% | Appearance ([3]; 40° C./75% RH, 1 week): beige-gray | HPLC Sum of impurities ([3]; 40° C./75% RH, 1 week): 3.31% | Appearance ([3]; 40° C./75% RH, 4 weeks): beige-gray | HPLC Sum of impurities ([3]; 40° C./75% RH, 4 weeks): 3.13% | Appearance ([3]; 40° C./75% RH, 8 weeks): beige-gray | HPLC Sum of impurities ([3]; 40° C./75% RH, 8 weeks): 3.59% | Appearance ([3]; 50° C., 1 week): beige-gray | HPLC Sum of impurities ([3]; 50° C., 1 week): 3.19% | Appearance ([3]; 50° C., 4 weeks): beige-gray | HPLC Sum of impurities ([3]; 50° C., 4 weeks): 3.2% | Appearance ([3]; 50° C., 8 weeks): beige-gray | HPLC Sum of impurities ([3]; 50° C., 8 weeks): 3.16% | Appearance ([3]; RT/56% RH, 4 weeks): beige-gray | HPLC Sum of impurities ([3]; RT/56% RH, 4 weeks): 3.27% | Appearance ([3]; RT/56% RH, 8 weeks): beige-gray | HPLC Sum of impurities ([3]; RT/56% RH, 8 weeks): 3.15% | Appearance ([3]; RT/75% RH, 4 weeks): beige-gray | HPLC Sum of impurities ([3]; RT/75% RH, 4 weeks): 3.43% | Appearance ([3]; RT/75% RH, 8 weeks): beige-gray | HPLC Sum of impurities ([3]; RT/75% RH, 8 weeks): 3.39% | Appearance ([3]; RT/<5% RH, 4 weeks): beige-gray | HPLC Sum of impurities ([3]; RT/<5% RH, 4 weeks): 3.42% | Appearance ([3]; RT/<5% RH, 8 weeks): beige-gray | HPLC Sum of impurities ([3]; RT/<5% RH, 8 weeks): 3.16% | Appearance ([3]; Reference (1 week)): beige-gray | HPLC Sum of impurities ([3]; Reference (1 week)): 3.14% | sensitivity towards light (sum of impurities) ([3]; storage in 0.3 da ICH light conditions): showed a sensitivity towards light | hygroscopic behavior ([4]; adsorption/desorption test): no hygroscopic behavior | water adsorbed at high relative humidity ([4]; high relative humidity): up to 0.6% | crystallinity during the adsorption/desorption test [4]: remained crystalline
